Measured values taken from US8410309B2, “Phenoxy carboxylic acid compounds and compositions for delivering active agents” (Emisphere Technologies, Inc., priority 1999, dated 2013).
Values joined by “and” are separate entries in the source; they are usually repeats but may differ in a detail not shown here. Equal values may be shown once. Read-outs that look alike come from different tables or passages of the source.

Assays:
[1] = Heparin oral/intracolonic delivery, clotting time by activated partial thromboplastin time (APTT); format: in vivo, Sprague-Dawley rats; settings: rats, baseline about 20 seconds
Outline: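 Heparin sodium with a delivery agent in 25% aqueous propylene glycol, pH about 7, was dosed by oral gavage or intracolonically. Citrated cardiac blood was taken under ketamine (88 mg/kg) at 0.25, 0.5, 1.0 and 1.5 h after dosing. Absorption was read as a rise in APTT clotting time.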

[2] = Insulin pulmonary delivery, serum insulin by ELISA, ratio to insulin-alone control; format: in vivo, Sprague-Dawley rats; settings: Table 9 pulmonary delivery, rats; volume 1 ml/kg, delivery agent compound 3 mg/kg, insulin 100 mg/kg (so in the source)
Procedure: Dosing compositions of delivery agent compound and human insulin in water were prepared. Typically, to 1.5 mg of delivery agent compound was added deionized water to bring the volume to 1.0 ml, and the solution was vortexed. […] The pH was adjusted to between about 7.0 to 8.5 with NaOH or HCl. […] The final delivery agent compound dose, insulin dose and volume dose amounts are listed below in Table 9.
The typical dosing and sampling protocols were as follows. […] A control group of five animals was dosed insulin alone. A tracheal instillator for rodents, equipped with light (available from Penn Century, Inc., Pittsburgh, Pa.) was filled with dosing solution and inserted down the throat until the needle went into the trachea (confirmed visually). The dosing solution was administered by pressing the plunger.
Blood samples from each animal were collected serially from the tail artery, typically at 5, 15, 30, 60 and 120 minutes after dosing. […] The ratio of the area under the curve (AUC) for the test group versus that of the control group is reported below. The ratio of the maximum serum insulin concentration (Cmax) for the test group versus that of the control group is also reported below.

[3] = rat, in vivo, po, 150 mg/kg
Procedure: (§2) Oral dosing (PO) compositions of a delivery agent compound and salmon calcitonin (sCT) in deionized water were prepared as described in Table 2 below. […] Either the sodium salt of the compound was used or the free acid was converted to the sodium salt by stirring the resultant solution and adding one equivalent of sodium hydroxide (1.0 N) and diluting with water. The solution was vortexed, then heated (about 37° C.) and sonicated. The pH was adjusted to about 7 (about 6.5 to 8.5) with NaOH or HCl. 90 μg sCT from a sCT stock solution (2 mg/ml made by adding 10001 pH 4 phosphate buffer to sCT and allowing it to go into solution by sitting for about 10-20 minutes and periodically gently inverting) was added to the solution.
(§3) The typical dosing and sampling protocols were as follows. Male Sprague-Dawley rats weighing between 200-250 g were fasted for 24 hours and administered ketamine (44 mg/kg) and chlorpromazine (1.5 mg/kg) 15 minutes prior to dosing and again as needed to maintain anesthesia. A dosing group of five animals was administered one of the dosing solutions. For oral dosing, an 11 cm Rusch 8 French catheter was adapted to a 1 ml syringe with a pipette tip. The syringe was filled with dosing solution by drawing the solution through the catheter, which was then wiped dry. The catheter was placed down the esophagus leaving 1 cm of tubing past the incisors. Solution was administered by pressing the syringe plunger.
(§4) Blood samples were collected serially from the tail artery, typically at time=0, 10, 20, 30, 60 and 90 minutes. […] Numbers were adjusted according to baseline values obtained at time=0. The results from the animals in each dosing group were averaged for each time point.

[4] = Parathyroid hormone (PTH 1-34) oral/intracolonic delivery, serum PTH by radioimmunoassay; settings: rats, oral (PO); delivery agent compound dose 100 mg/kg, PTH dose 200 μg/kg, volume dose 1 ml/kg
Procedure: Oral gavage (PO) and/or intracolonic (IC) dosing solutions of delivery agent compound and human parathyroid hormone residues 1-34 (PTH) in deionized water were prepared. A solution of the compound was made either with the sodium salt of the delivery agent compound or by converting the free acid to its sodium salt.
The typical dosing and sampling protocols were as follows. Male Sprague-Dawley rats weighing between 200-250 g were fasted for 24 hours and administered ketamine (44 mg/kg) and chlorpromazine (1.5 mg/kg) 15 minutes prior to dosing and again as needed to maintain anesthesia. A dosing group of five animals was administered one of the dosing solutions. For oral gavage (PO), an 11 cm Rusch 8 French catheter was adapted to a 1 ml syringe with a pipette tip. The syringe was filled with dosing solution by drawing the solution through the catheter, which was then wiped dry. The catheter was placed down the esophagus leaving 1 cm of tubing past the incisors. The dosing solution was administered by pressing the syringe plunger. For intracolonic (IC) dosing, a 7.5 cm Rusch catheter tube (French 8 or 6) was adapted to a syringe with an Eppendorf pipette tip. The syringe was filled with the dosing solution by drawing the solution through the catheter tube. The catheter tube was wiped dry. K-Y jelly was applied to the tip, avoiding contact with the eye of the tube, and the tube was inserted into the colon through the anus until the tube was no longer visible. The dosing solution was injected by pressing the syringe plunger, and the tube was removed.
Previous studies indicated baseline values of about zero. Results from the animals in each group were averaged for each time point.

[5] = Low molecular weight heparin (LMWH) oral/intracolonic delivery, plasma LMWH by anti-Factor Xa assay; format: in vivo, Sprague-Dawley rats; settings: rats
Outline: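 LMWH (parnaparin) plus delivery agent in 25% aqueous propylene glycol, pH about 7, given orally or intracolonically. Citrated blood drawn by cardiac puncture under ketamine (88 mg/kg), typically at 0.5–4.0 h post-dose. Plasma LMWH measured by chromogenic anti-Factor Xa assay; peak of mean plasma concentrations reported.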

[6] = Insulin oral delivery, serum human insulin by ELISA; settings: rats
[7] = Daptomycin oral delivery, plasma daptomycin by HPLC; format: in vivo, Sprague-Dawley rats; settings: rats, delivery agent compound dose 200 mg/kg, daptomycin dose 50 mg/kg, volume dose 1 mL/kg
Procedure: Dosing solutions containing a delivery agent compound and daptomycin (Cubist Pharmaceuticals, Cambridge, Mass.) were prepared in 0.9% normal saline. […] This mixture was vortexed and placed in a sonicator (about 37° C.). The pH was adjusted to about 7.0-7.5 with aqueous HCl or NaOH. […] The mixture was vortexed to produce a uniform solution, also using sonication if necessary. The delivery agent compound solution was mixed with daptomycin from a stock solution (200 mg daptomycin/mL in 0.9% normal saline and the pH adjusted, if necessary, to between 6.0-7.0 with NaOH or HCl). The stock solution was stored frozen (−20° C.) wrapped in foil, then thawed and warmed gradually to about 25° C. before using. The delivery agent-daptomycin mixture was vortexed at low speed to produce a uniform solution. The pH was adjusted to about 7.0-7.5 with aqueous NaOH. The solution was then diluted with 0.9% normal saline to the desired volume (usually 2.0 ml) and concentration and stored wrapped in foil before use.
(§1) The typical dosing and sampling protocols were as follows.
Heparinized rat blood samples were collected via the ventral tail artery, typically at 0.25, 0.5, 0.75, 1.0, 2.0, and 4.0 hours after dosing, and stored on ice. Blood samples were then spun (centrifuged) at 11,500 rpm for 4 minutes at 4° C. to obtain the plasma (supernatant), which was stored at −70° C. The plasma daptomycin concentrations were measured by isocratic reversed phase HPLC, keeping samples at 4° C. during analysis. Blank plasma studies show baseline values of zero.
Daptomycin blood concentrations results from the individual animals in each dosage group were averaged for each time point.

[8] = Recombinant human growth hormone (rhGH) oral delivery, serum rhGH by immunoassay; settings: oral gavage, rats; delivery agent compound 200 mg/kg, rhGH 3 mg/kg, volume dose 1 ml
[9] = Salmon calcitonin (sCT) oral delivery, serum sCT by EIA; settings: rats
Procedure: as §2, §3, §4

[10] = Interferon oral delivery, serum IFN by immunoassay; format: in vivo, Sprague-Dawley rats; settings: rats, delivery agent compound 200 mg/kg, IFN 1 mg/kg, 1 ml/kg
Procedure: Dosing solutions of delivery agent compound and human interferon (IFN) were prepared in deionized water. […] This mixture was vortexed and placed in a sonicator (about 37° C.). The pH was adjusted to about 7.0 to 8.5 with aqueous NaOH. The mixture was vortexed to produce a uniform suspension or solution, also using sonication and heat if necessary.
as §1
Serum IFN concentrations were quantified using Cytoscreen Immunoassay Kit for human IFN-alpha (catalog # KHC4012 from Biosource International, Camarillo, Calif.). Previous studies indicated baseline values of about zero.

[11] = IC (intracolonic), delivery agent compound 50 mg/kg, heparin 25 mg/kg, volume dose 1 ml
[12] = IC, delivery agent compound 50 mg/kg, LMWH 750 IU/kg, 1 ml/kg, 50 mg/kg
[13] = delivery agent compound 100 mg/kg, insulin 3 mg/kg, 0.5 ml/kg

Compound | Mean Peak APTT ± SD [1, 11] | Mean Peak Serum [PTH] (pg/mL) ± SD [4] | Mean Peak Plasma LMWH Concentration ± SD [5, 12] | Mean Peak Serum [INS] ± SD [6, 13] | Mean plasma Cmax [daptomycin] ± SD [7] | also measured
O=C(O)CCCCCCCOc1ccccc1O [Compound 7, 8-(2-hydroxyphenoxy)octanoic acid] | 130.5 ± 42.6 s and 92 ± 40.3 s and 99.4 ± 25.5 s |  |  |  |  | melting point: 60 to 64 °C; Cmax (serum insulin) [2]: 130.9724 μU/ml
O=C(O)COc1ccccc1O [Compound 3] | 16.046 ± 0.481 s and 16.984 ± 1.45 s |  |  |  |  | Mean Peak Serum sCT (pg/ml ± SD) (SE) [3]: 0 ± 81 pg/mL
CNC(=O)c1ccccc1OCCCCCCCC(=O)O [Compound 31] | 47 ± 23.1 s | 460 ± 194 pg/mL | 0.47 ± 0.287 IU/ml and 0.47 ± 0.332 IU/ml | 21.26 ± 6.22 μU/ml |  | 
NC(=O)c1ccccc1OCCCCCCCC(=O)O [Compound 30, 8-(2-carboxamidophenoxy)caprylic acid] | 50.9 ± 20.5 s | 78 ± 71 pg/mL | 0.162 ± 0.094 IU/ml and 0.288 ± 0.152 IU/ml |  | 3060 ± 780 ng/mL | Mean Peak Serum [INS] ± SD ([6]; delivery agent compound 200 mg/kg, insulin 0.5 mg/kg, 1 ml/kg): 21.88 ± 13.4 μU/ml
CCNC(=O)c1ccccc1OCCCCCCCC(=O)O [Compound 33, 8-(2-(N-ethylbenzamide)oxy)octanoic acid] |  | 837 ± 347 pg/mL |  | 58.13 ± 52.86 μU/ml |  | Mean Peak Serum [rhGH] [8]: 10.1 ng/mL and 6.9 ng/mL; Mean Peak Serum sCT (pg/ml ± SD) (SE) ([9]; delivery agent compound dose 150 mg/kg, sCT dose 30 μg/kg, dose volume 1 (ml)): 96 ± 209 pg/mL
CC(=O)c1ccccc1OCCCCCCCC(=O)O [Compound 12] |  | 276 ± 252 pg/mL | 1.7 ± 0.308 IU/ml and 1.74 ± 0.304 IU/ml and 2.012 ± 0.124 IU/ml and 1.498 ± 0.462 IU/ml | 205.4 ± 333.4 μU/ml | 16110 ± 17580 ng/mL | Mean Peak APTT ± SD ([1]; PO (oral gavage), delivery agent compound 300 mg/kg, heparin 100 mg/kg, volume dose 3 ml): 201.4 ± 45.7 s; Mean Peak Plasma LMWH Concentration ± SD ([5]; IC, delivery agent compound 10 mg/kg, LMWH 750 IU/kg, 1 ml/kg): 0.2 ± 0.077 IU/ml; Mean Peak Plasma LMWH Concentration ± SD ([5]; IC, delivery agent compound 50 mg/kg, LMWH 751 IU/kg, 1 ml/kg): 1.5 ± 0.23 IU/ml; Mean Peak Plasma LMWH Concentration ± SD ([5]; PO, delivery agent compound 300 mg/kg, LMWH 3000 IU/kg, 3 ml/kg): 0.137 ± 0.18 IU/ml; Mean Peak Serum sCT (pg/ml ± SD) (SE) ([9]; delivery agent compound dose 50 mg/kg, sCT dose 100 μg/kg, dose volume 0.5 (ml)): 445 ± 221 pg/mL; Mean Peak Serum sCT (pg/ml ± SD) (SE) ([9]; delivery agent compound dose 50 mg/kg, sCT dose 100 μg/kg, dose volume 1 (ml)): 316 ± 476 pg/mL; Mean Peak Serum [IFN] ± SD [10]: 1.6362 ± 1.68 ng/mL
